Two molecules from PubChem BioAssay (NCI) can be followed below.

Among the test systems are LXFL 529 NSCLC; DLD-1 colon; HOP-18 NSCLC; M19-MEL melanoma; DMS 114 small cell lung; RXF-631 renal; SNB-78 CNS; DMS 273 small cell lung; SN12K1 renal; P388 leukemia; P388/ADR leukemia.
Holding throughout (test): NCI tumour cell line growth inhibition, 48 h

SMILES strings stand for the structures.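 Cells were grown in 96-well plates and exposed to each compound for 48 hours at five concentrations; endpoints were interpolated linearly between bracketing concentrations, or set to the highest concentration if not reached. The concentration for full growth arrest is given as TGI.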

Turning to `COc1ccc(-c2cc(-c3ccccc3)c(C#N)c(=O)n2C2OC(CO)C(O)C(O)C2O)cc1` (configuration not stated), the TGI in the assay on LXFL 529 NSCLC, in the assay on DLD-1 colon, in the assay with HOP-18 NSCLC, with M19-MEL melanoma, in the assay with DMS 114 small cell lung and in the assay on RXF-631 renal was above 100 µM in each case. Also, the TGI with SNB-78 CNS and in the assay with DMS 273 small cell lung was above 100 µM each time.
For `N=c1ccn2c(n1)OC1C(O)C(CO)OC12` (configuration not stated), the TGI in the assay on SN12K1 renal is above 1000 µM; in the assay with DLD-1 colon, above 1000 µM; in the assay with HOP-18 NSCLC it was above 662 µM; in the assay with M19-MEL melanoma, above 1000 µM; in the assay on P388 leukemia, 4.37 µM; in the assay with DMS 114 small cell lung, above 163 µM. The TGI with P388/ADR leukemia is 5.13 µM; with SNB-78 CNS, above 1000 µM; in the assay with DMS 273 small cell lung it was above 364 µM.
